According to patent US20220396593A1, “SYNTHESIS AND CHARACTERIZATION OF VANADIUM COMPLEXES” (priority 2021, published 2022):

Legend:
[1] = test system: oncolytic RNA viruses including vesicular stomatitis virus (VSV) and Measles; conditions: cited from earlier work
[2] = Stability of vanadium complexes in water and PBS buffer (NMR, pH over time); conditions: pH adjusted to 7.4 where needed
[3] = Solubility of vanadium complex solid in water / PBS buffer

O=S(=O)([O-])[O-].[O]=[V+2] [vanadyl sulfate]
Effect on replication and spread of oncolytic RNA viruses [1]: improve the replication and spread of oncolytic RNA viruses

Na3[(V^IVO)2(C6H4O7)(C6H5O7)] [CDOS155]
Stability in solution and need for pH adjustment [2]: limited at pH 7.4 but similar in water or PBS but required continuous pH adjustment
Solubility ([3]; in water): soluble in water
pH up to which the solid dissolved ([3]; solid mixed with PBS buffer): ≤ 5

[O]=[V]([O-])([O-])[O-] [orthovanadate]
Effect on replication and spread of oncolytic RNA viruses [1]: improve the replication and spread of oncolytic RNA viruses

Cc1occc(=O)c1[O-].Cc1occc(=O)c1[O-].[O]=[V+2] [bismaltolatoxovanadate (BMOV), bismaltolatoxovanadate]
Effect on replication and spread of oncolytic RNA viruses [1]: improve the replication and spread of oncolytic RNA viruses

K3[(VO2)2(C6H6O7)(C6H5O7)]×3 H2O [CDOS150]
Stability in solution and need for pH adjustment [2]: the solutions did require initial pH adjustment
pH up to which the solid dissolved ([3]; solid dissolved into water and phosphate buffered saline (PBS) buffer): ≤ 5
